Where two headings read alike, the source gives them in different places.
Target: T1, BRM (Homo sapiens, UniProt P51531)
T1 construct: In-Cell Western Screen of BRM Degradation in SW1573 Cells; endogenous in cells; host or cells: SW1573
Experiment: In-cell Western screen of BRM degradation in SW1573 cells (Dmax and DC50)
Type: cell-based
Procedure: In-Cell Western Screen of BRM Degradation in SW1573 Cells
To assess BRM degradation (Dmax and DC50), cells were seeded at 8000/well in 96-well black/clear-bottom plates in 180 μL DMEM growth media (containing 1% pen-strep, 1% HEPES and 10% FBS) per well. Plates were incubated overnight to allow adhesion. The next morning cells were treated by adding 20 μL of 10× compound (1% DMSO) to appropriate wells and returned to incubator for overnight (18-20 hours). The final DMSO concentration was 0.1%.
For processing, the plates were removed from incubator, the media was removed, and immediately 200 μL of cold (4° C.) DPBS was added to all wells. DPBS was then removed, and 50 μL of 4% paraformaldehyde (PFA) in DPBS (4° C.) was added to all wells, and the plates were incubated at room temperature for 20 minutes. PFA was then removed, and 200 μL of TBS-T containing 0.5% Triton X-100 was added to all wells, and the plates were incubated at room temperature for 30 minutes. TBS-T containing 0.5% Triton X-100 was then removed, and 50 μL of Li-Cor blocking solution was added, and the plates were incubated at room temperature for a minimum of one hour.
The next day plates were washed three times with TBS-T, 200 μL per well. Fifty (50) μL of secondary antibody cocktail in LI-COR blocking solution (anti-rabbit_800 nm and anti-mouse_680 nm) was added to all wells (diluted 1:5000). The plates were incubated at room temperature for at least one hour while protected from light. The plates were washed twice with TBS-T, 200 μL per well.
To read each plate TBS-T was removed, and each plate was inverted tapped on a paper towel. The plates were read on the LI-COR Odyssey with default intensity settings of 5.0 for both channels. LI-COR images were analyzed with the in-cell Western feature of Image Studio Lite.

[1] = BRM degradation, read-out: BRM DC50
[2] = BRM degradation, SW1573 cells, read-out: DC50
[3] = BRM degradation, SW1573 cells, read-out: Dmax (% degraded)
[4] = BRM degradation, SW1573 cells, tested at the top concentration of between 0.3 and 10 μM, read-out: Dmax (%) (% degraded)

T1 sequence (P51531 whole entry): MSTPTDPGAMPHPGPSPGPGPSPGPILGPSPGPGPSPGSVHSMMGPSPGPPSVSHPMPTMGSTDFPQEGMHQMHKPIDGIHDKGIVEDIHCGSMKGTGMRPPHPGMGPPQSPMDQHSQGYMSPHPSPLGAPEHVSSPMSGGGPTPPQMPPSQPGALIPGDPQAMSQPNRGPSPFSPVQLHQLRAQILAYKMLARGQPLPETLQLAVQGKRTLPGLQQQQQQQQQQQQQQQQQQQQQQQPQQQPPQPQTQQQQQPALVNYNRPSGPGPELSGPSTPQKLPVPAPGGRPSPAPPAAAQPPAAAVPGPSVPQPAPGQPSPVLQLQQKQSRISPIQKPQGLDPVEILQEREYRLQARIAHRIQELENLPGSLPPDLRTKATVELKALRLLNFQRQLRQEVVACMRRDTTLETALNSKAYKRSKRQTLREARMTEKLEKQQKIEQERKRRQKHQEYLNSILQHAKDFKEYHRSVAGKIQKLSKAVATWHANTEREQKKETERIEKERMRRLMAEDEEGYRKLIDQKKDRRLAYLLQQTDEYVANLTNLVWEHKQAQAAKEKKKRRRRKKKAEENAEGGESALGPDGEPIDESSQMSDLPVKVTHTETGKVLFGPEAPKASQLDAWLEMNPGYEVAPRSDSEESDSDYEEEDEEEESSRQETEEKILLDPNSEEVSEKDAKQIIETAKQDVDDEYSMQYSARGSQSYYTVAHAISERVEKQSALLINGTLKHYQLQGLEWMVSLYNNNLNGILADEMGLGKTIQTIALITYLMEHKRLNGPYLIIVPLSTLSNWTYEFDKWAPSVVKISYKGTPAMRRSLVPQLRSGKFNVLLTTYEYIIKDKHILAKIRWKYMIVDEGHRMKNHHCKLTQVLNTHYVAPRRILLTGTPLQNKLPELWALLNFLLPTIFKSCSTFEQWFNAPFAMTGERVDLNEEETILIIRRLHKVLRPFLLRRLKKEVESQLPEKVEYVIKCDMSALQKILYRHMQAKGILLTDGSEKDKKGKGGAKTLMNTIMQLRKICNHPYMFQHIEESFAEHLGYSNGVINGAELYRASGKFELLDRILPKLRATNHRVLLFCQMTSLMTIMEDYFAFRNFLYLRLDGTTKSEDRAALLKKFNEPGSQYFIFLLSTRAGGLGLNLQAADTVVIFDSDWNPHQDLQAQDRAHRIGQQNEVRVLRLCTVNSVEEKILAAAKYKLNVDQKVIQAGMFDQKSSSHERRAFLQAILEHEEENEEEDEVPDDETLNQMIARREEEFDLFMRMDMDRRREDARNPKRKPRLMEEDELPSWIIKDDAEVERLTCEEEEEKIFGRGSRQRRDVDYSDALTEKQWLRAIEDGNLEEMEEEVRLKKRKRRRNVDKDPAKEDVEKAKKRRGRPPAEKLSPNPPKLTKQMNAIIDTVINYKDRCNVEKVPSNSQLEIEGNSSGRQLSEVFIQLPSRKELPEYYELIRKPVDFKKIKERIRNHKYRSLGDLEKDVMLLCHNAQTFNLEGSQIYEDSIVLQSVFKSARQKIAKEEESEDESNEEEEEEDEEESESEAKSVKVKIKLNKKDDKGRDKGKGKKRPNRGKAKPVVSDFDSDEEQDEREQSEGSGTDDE

Structure (SMILES) | DC50 [2] [µM] | Dmax [4] [%] | further results
Cc1ncsc1-c1ccc([C@H](C)NC(=O)[C@@H]2C[C@@H](O)CN2C(=O)[C@@H](c2cc(OCCC3CCN(CCOc4cc(N5C6CCC5CN(c5cc(-c7ccccc7O)nnc5N)C6)ccn4)CC3)no2)C(C)C)cc1 [compound 511, (2S,4R)-1-((2R)-2-(3-(2-(1-(2-((4-(3-(3-amino-6-(2-hydroxyphenyl)pyridazin-4-yl)-3,8-diazabicyclo[3.2.1]octan-8-yl)pyridin-2-yl)oxy)ethyl)piperidin-4-yl)ethoxy)isoxazol-5-yl)-3-methylbutanoyl)-4-hydroxy-N-((S)-1-(4-(4-methylthiazol-5-yl)phenyl)ethyl)pyrrolidine-2-carboxamide] |  |  | DC50 [1]: > 0.03 µM
Cc1cc([C@@H](C(=O)N2C[C@H](O)C[C@H]2C(=O)N[C@H](COCCOCCNc2ccc(-c3ccccc3O)nn2)c2ccc(-c3scnc3C)cc2)C(C)C)on1 [compound 523, (2S,4R)-4-hydroxy-N-((S)-2-(2-(2-((6-(2-hydroxyphenyl)pyridazin-3-yl)amino)ethoxy)ethoxy)-1-(4-(4-methylthiazol-5-yl)phenyl)ethyl)-1-((S)-3-methyl-2-(3-methylisoxazol-5-yl)butanoyl)pyrrolidine-2-carboxamide] |  |  | DC50 [1]: > 0.03 µM
Cc1ncsc1-c1ccc([C@H](C)NC(=O)[C@@H]2C[C@@H](O)CN2C(=O)[C@@H](c2cc(N3CCC4(CCCN(C[C@H]5C[C@H](Oc6cc(N7C8CCC7CN(c7cc(-c9ccccc9O)nnc7N)C8)ccn6)C5)C4)CC3)no2)C(C)C)cc1 [compound 660, (2S,4R)-1-((2R)-2-(3-(2-(((1r,3R)-3-((4-(3-(3-amino-6-(2-hydroxyphenyl)pyridazin-4-yl)-3,8-diazabicyclo[3.2.1]octan-8-yl)pyridin-2-yl)oxy)cyclobutyl)methyl)-2,9-diazaspiro[5.5]undecan-9-yl)isoxazol-5-yl)-3-methylbutanoyl)-4-hydroxy-N-((S)-1-(4-(4-methylthiazol-5-yl)phenyl)ethyl)pyrrolidine-2-carboxamide] | < 0.0025 |  | Dmax [3]: > 75%
Cc1ncsc1-c1ccc([C@H](C)NC(=O)[C@@H]2C[C@@H](O)CN2C(=O)[C@@H](c2cc(OCCC3CCN(C(=O)[C@H]4C[C@H](CN5CCC(n6cc(-c7cc(-c8ccccc8O)nnc7N)cn6)CC5)C4)CC3)no2)C(C)C)cc1 [compound 468, (2S,4R)-1-((R)-2-(3-(2-(1-((1r,3R)-3-((4-(4-(3-amino-6-(2-hydroxyphenyl)pyridazin-4-yl)-1H-pyrazol-1-yl)piperidin-1-yl)methyl)cyclobutane-1-carbonyl)piperidin-4-yl)ethoxy)isoxazol-5-yl)-3-methylbutanoyl)-4-hydroxy-N-((S)-1-(4-(4-methylthiazol-5-yl)phenyl)ethyl)pyrrolidine-2-carboxamide] |  |  | DC50 (target protein degradation, read-out: BRM DC50): > 0.03 µM
Cc1ncsc1-c1ccc([C@H](C)NC(=O)[C@@H]2C[C@@H](O)CN2C(=O)[C@H](c2cc(N3CCC(O[C@H]4C[C@H](Oc5cc(N6C7CCC6CN(c6cc(-c8ccccc8O)nnc6N)C7)ccn5)C4)CC3)no2)C(C)C)cc1 [compound 403, (2S,4R)-1-((2S)-2-(3-(4-((1r,3S)-3-((4-(3-(3-amino-6-(2-hydroxyphenyl)pyridazin-4-yl)-3,8-diazabicyclo[3.2.1]octan-8-yl)pyridin-2-yl)oxy)cyclobutoxy)piperidin-1-yl)isoxazol-5-yl)-3-methylbutanoyl)-4-hydroxy-N-((S)-1-(4-(4-methylthiazol-5-yl)phenyl)ethyl)pyrrolidine-2-carboxamide] |  |  | Dmax (SW1573, % degraded, when tested at the top concentration of between 0.3 and 10 μM, read-out: BRM Dmax (%)): > 75%; DC50 (degradation of BRM, read-out: BRM DC50): 0.0025 to 0.01 µM
Cc1nccn1-c1ccc([C@H](C)NC(=O)[C@@H]2C[C@@H](O)CN2C(=O)[C@H](c2cc(OCCN3CCC(O[C@H]4C[C@H](Oc5cc(N6C7CCC6CN(c6cc(-c8ccccc8O)nnc6N)C7)ccn5)C4)CC3)no2)C(C)C)cc1 [compound 176, (2S,4R)-1-((2S)-2-(3-(2-(4-((1r,3S)-3-((4-(3-(3-amino-6-(2-hydroxyphenyl)pyridazin-4-yl)-3,8-diazabicyclo[3.2.1]octan-8-yl)pyridin-2-yl)oxy)cyclobutoxy)piperidin-1-yl)ethoxy)isoxazol-5-yl)-3-methylbutanoyl)-4-hydroxy-N-((S)-1-(4-(2-methyl-1H-imidazol-1-yl)phenyl)ethyl)pyrrolidine-2-carboxamide] | > 0.03 | < 50 | 
Cc1ncsc1-c1ccc([C@@H](NC(=O)[C@@H]2C[C@@H](O)CN2C(=O)[C@H](c2cc(OCCN3CCN(CCOc4cc(N5C6CCC5CN(c5cc(-c7ccccc7O)nnc5N)C6)ccn4)CC3)no2)C(C)C)C(=O)N(C)C)cc1 [compound 171, (2S,4R)-1-((2S)-2-(3-(2-(4-(2-((4-(3-(3-amino-6-(2-hydroxyphenyl)pyridazin-4-yl)-3,8-diazabicyclo[3.2.1]octan-8-yl)pyridin-2-yl)oxy)ethyl)piperazin-1-yl)ethoxy)isoxazol-5-yl)-3-methylbutanoyl)-N-((R)-2-(dimethylamino)-1-(4-(4-methylthiazol-5-yl)phenyl)-2-oxoethyl)-4-hydroxypyrrolidine-2-carboxamide] | > 0.03 | 50 to 75 | 
Cc1ncsc1-c1ccc([C@H](C)NC(=O)[C@@H]2C[C@@H](O)CN2C(=O)[C@@H](c2cc(OC/C=C/c3ccc(O[C@H]4C[C@H](Oc5cc(N6C7CCC6CN(c6cc(-c8ccccc8O)nnc6N)C7)ccn5)C4)cn3)no2)C(C)C)cc1 [compound 86, (2S,4R)-1-((2R)-2-(3-(((E)-3-(5-((1r,3R)-3-((4-(3-(3-amino-6-(2-hydroxyphenyl)pyridazin-4-yl)-3,8-diazabicyclo[3.2.1]octan-8-yl)pyridin-2-yl)oxy)cyclobutoxy)pyridin-2-yl)allyl)oxy)isoxazol-5-yl)-3-methylbutanoyl)-4-hydroxy-N-((S)-1-(4-(4-methylthiazol-5-yl)phenyl)ethyl)pyrrolidine-2-carboxamide] | < 0.0025 |  | Dmax (BRM degradation, SW1573 cells, when tested at the top concentration of between 0.3 and 10 μM, read-out: Dmax (%) (% degraded)): > 75%
Cc1nccn1-c1ccc([C@H](C)NC(=O)[C@@H]2C[C@@H](O)CN2C(=O)[C@@H](c2cc(OCCN3CCC(O[C@H]4C[C@H](Oc5cc(N6C7CCC6CN(c6cc(-c8ccccc8O)nnc6N)C7)ccn5)C4)CC3)no2)C(C)C)cc1 [compound 178, (2S,4R)-1-((2R)-2-(3-(2-(4-((1r,3R)-3-((4-(3-(3-amino-6-(2-hydroxyphenyl)pyridazin-4-yl)-3,8-diazabicyclo[3.2.1]octan-8-yl)pyridin-2-yl)oxy)cyclobutoxy)piperidin-1-yl)ethoxy)isoxazol-5-yl)-3-methylbutanoyl)-4-hydroxy-N-((S)-1-(4-(2-methyl-1H-imidazol-1-yl)phenyl)ethyl)pyrrolidine-2-carboxamide] | < 0.0025 | > 75 | 
Cc1ncsc1-c1ccc([C@H](C)NC(=O)[C@@H]2C[C@@H](O)CN2C(=O)[C@H](c2cc(N3CCN(C(C)[C@H]4C[C@H](Oc5cc(N6C7CCC6CN(c6cc(-c8ccccc8O)nnc6N)C7)ccn5)C4)CC3)no2)C(C)C)cc1 (stereo partly drawn) [compound 703, (2S,4R)-1-((2S)-2-(3-(4-((1S)-1-((1r,3S)-3-((4-(3-(3-amino-6-(2-hydroxyphenyl)pyridazin-4-yl)-3,8-diazabicyclo[3.2.1]octan-8-yl)pyridin-2-yl)oxy)cyclobutyl)ethyl)piperazin-1-yl)isoxazol-5-yl)-3-methylbutanoyl)-4-hydroxy-N-((S)-1-(4-(4-methylthiazol-5-yl)phenyl)ethyl)pyrrolidine-2-carboxamide] | 0.0025 to 0.01 |  | Dmax [3]: > 75%
